Broadly, the MIC is the smallest concentration in the dilution series that meets the test's criterion for growth inhibition.

Structures are written as SMILES. Values after ≈ are worked out from the molar mass of the structure shown.

What all share (assay type): functional
In one test the test system is Cyberlindnera jadinii. Kind of test: Antifungal activity against Candida utilis ATCC 9950 after 24 hrs by micro broth dilution method. The settings on record: Williopsis jadinii, ATCC 9950, 24 h.
In a further test the test system is Candida albicans. Kind of test: Antifungal activity against Candida albicans ATCC 90029 after 24 hrs by micro broth dilution method. The settings on record: ATCC 90029, 24 h.
For another test, the system named is Aspergillus flavus. Briefly: Antifungal activity against Aspergillus flavus after 24 hrs by micro broth dilution method. For orientation: Dilution methods test growth across graded concentrations, often in twofold steps.
The test system of the next test is Candida. Briefly: Antifungal activity against Candida mycoderma after 24 hrs by micro broth dilution method.
The subject of test [1] is Staphylococcus aureus. Briefly: Antibacterial activity against Staphylococcus aureus ATCC 25923 after 24 hrs by micro broth dilution method. The settings on record: ATCC 25923, 24 h.
A further test relates to Pseudomonas aeruginosa. Briefly: Antibacterial activity against Pseudomonas aeruginosa ATCC 27853 after 24 hrs by micro broth dilution method. Particulars: ATCC 27853, 24 h.
For another test, the system named is Shigella dysenteriae. Briefly: Antibacterial activity against Shigella dysenteriae ATCC 51252 after 24 hrs by micro broth dilution method. The settings on record: ATCC 51252, 24 h.
The test system of a further test is Micrococcus luteus. Briefly: Antibacterial activity against Micrococcus luteus ATCC 4698 after 24 hrs by micro broth dilution method. Particulars: ATCC 4698, 24 h.
For the next test, the system named is Bacillus spizizenii. Briefly: Antibacterial activity against Bacillus subtilis ATCC 6633 after 24 hrs by micro broth dilution method. Particulars: ATCC 6633, 24 h.
The test system of a further test is Escherichia coli. Briefly: Antibacterial activity against Escherichia coli DH52 after 24 hrs by micro broth dilution method. The settings on record: DH52, 24 h.
Test [2] concerns Staphylococcus aureus. Kind of test: Antibacterial activity against methicillin-resistant Staphylococcus aureus N315 after 24 hrs by micro broth dilution method. Particulars: N315, 24 h.
The next test deals with Bacillus sp. Briefly: Antibacterial activity against Bacillus proteus ATCC 13315 after 24 hrs by micro broth dilution method. Particulars: Bacillus sp. (in: firmicutes), ATCC 13315, 24 h.

`OC(Cn1cncn1)(Cn1cncn1)c1ccc(F)cc1F` [FLUCONAZOLE]: the MIC with Cyberlindnera jadinii turned out to be 1 µg/mL (≈ 3.27 µM); in the test with Candida albicans, 0.5 µg/mL (≈ 1.63 µM); against Aspergillus flavus it was 64 µg/mL (≈ 209 µM); in the test on Candida it was 2 µg/mL (≈ 6.53 µM).

As for `CCCCCCCCN(CC#N)c1ccccc1`, the minimum inhibitory concentration (MIC) came to 256 µg/mL (≈ 1050 µM) in the test with Staphylococcus aureus [1]; 256 µg/mL (≈ 1050 µM) in the test on Cyberlindnera jadinii; 512 µg/mL (≈ 2100 µM) in the test on Pseudomonas aeruginosa; 512 µg/mL (≈ 2100 µM) against Shigella dysenteriae; 256 µg/mL (≈ 1050 µM) with Candida albicans; 256 µg/mL (≈ 1050 µM) in the test on Aspergillus flavus. Moreover, the minimal inhibitory concentration (MIC) in the test on Candida came to 64 µg/mL (≈ 262 µM); in the test on Micrococcus luteus, 256 µg/mL (≈ 1050 µM); with Bacillus spizizenii it was 256 µg/mL (≈ 1050 µM); against Escherichia coli, 128 µg/mL (≈ 524 µM); against Staphylococcus aureus [2], 256 µg/mL (≈ 1050 µM); with Bacillus sp., 256 µg/mL (≈ 1050 µM).

In the case of `N#CCN(Cc1cccc(F)c1)c1ccccc1`, the MIC is 64 µg/mL (≈ 266 µM) in the test with Staphylococcus aureus [1]; 128 µg/mL (≈ 533 µM) with Cyberlindnera jadinii; 256 µg/mL (≈ 1070 µM) in the test with Pseudomonas aeruginosa; 128 µg/mL (≈ 533 µM) against Shigella dysenteriae; 64 µg/mL (≈ 266 µM) in the test on Candida albicans; 256 µg/mL (≈ 1070 µM) against Aspergillus flavus. Besides, the MIC against Candida was 128 µg/mL (≈ 533 µM); in the test on Micrococcus luteus, 256 µg/mL (≈ 1070 µM); against Bacillus spizizenii, 128 µg/mL (≈ 533 µM); with Escherichia coli it was 256 µg/mL (≈ 1070 µM); against Staphylococcus aureus [2] it was 128 µg/mL (≈ 533 µM); in the test with Bacillus sp., 128 µg/mL (≈ 533 µM).

`COc1ccc(N(CC#N)Cc2ccc(Cl)cc2Cl)cc1`: the minimal inhibitory concentration (MIC) in the test on Staphylococcus aureus [1] is 128 µg/mL (≈ 398 µM); with Cyberlindnera jadinii it was 128 µg/mL (≈ 398 µM); with Pseudomonas aeruginosa it was 256 µg/mL (≈ 797 µM); against Shigella dysenteriae it was 128 µg/mL (≈ 398 µM); in the test on Candida albicans, 64 µg/mL (≈ 199 µM); with Aspergillus flavus it was 128 µg/mL (≈ 398 µM). The MIC worked out at 64 µg/mL (≈ 199 µM) against Candida; 256 µg/mL (≈ 797 µM) in the test with Micrococcus luteus; 256 µg/mL (≈ 797 µM) in the test on Bacillus spizizenii; 256 µg/mL (≈ 797 µM) in the test with Escherichia coli; 128 µg/mL (≈ 398 µM) against Staphylococcus aureus [2]; 128 µg/mL (≈ 398 µM) in the test on Bacillus sp..

With `N#CCN(Cc1ccc(Cl)cc1Cl)c1ccccc1`, the MIC with Staphylococcus aureus [1] was 256 µg/mL (≈ 879 µM); against Cyberlindnera jadinii, 128 µg/mL (≈ 440 µM); in the test on Pseudomonas aeruginosa, 256 µg/mL (≈ 879 µM); against Shigella dysenteriae, 256 µg/mL (≈ 879 µM); in the test with Candida albicans it was 128 µg/mL (≈ 440 µM); in the test with Aspergillus flavus, 256 µg/mL (≈ 879 µM). For the same compound, the MIC is 64 µg/mL (≈ 220 µM) in the test on Candida; 256 µg/mL (≈ 879 µM) with Micrococcus luteus; 128 µg/mL (≈ 440 µM) against Bacillus spizizenii; 128 µg/mL (≈ 440 µM) in the test with Escherichia coli; 256 µg/mL (≈ 879 µM) against Staphylococcus aureus [2]; 256 µg/mL (≈ 879 µM) in the test with Bacillus sp..

`N#CCN(Cc1ccccc1Cl)c1ccccc1`: the MIC was determined as 128 µg/mL (≈ 499 µM) in the test on Staphylococcus aureus [1]; 64 µg/mL (≈ 249 µM) against Cyberlindnera jadinii; 128 µg/mL (≈ 499 µM) with Pseudomonas aeruginosa; 128 µg/mL (≈ 499 µM) in the test on Shigella dysenteriae; 128 µg/mL (≈ 499 µM) with Candida albicans; 128 µg/mL (≈ 499 µM) in the test with Aspergillus flavus. The MIC in the test with Candida stood at 64 µg/mL (≈ 249 µM); in the test on Micrococcus luteus, 256 µg/mL (≈ 997 µM); in the test on Bacillus spizizenii, 256 µg/mL (≈ 997 µM); in the test on Escherichia coli, 256 µg/mL (≈ 997 µM); with Staphylococcus aureus [2], 128 µg/mL (≈ 499 µM); in the test on Bacillus sp. it was 128 µg/mL (≈ 499 µM).

Take `N#CCN(Cc1ccc(Cl)cc1)c1ccccc1`: the MIC was determined as 128 µg/mL (≈ 499 µM) with Staphylococcus aureus [1]; 128 µg/mL (≈ 499 µM) in the test with Cyberlindnera jadinii; 64 µg/mL (≈ 249 µM) against Pseudomonas aeruginosa; 128 µg/mL (≈ 499 µM) in the test on Shigella dysenteriae; 128 µg/mL (≈ 499 µM) against Candida albicans; 256 µg/mL (≈ 997 µM) against Aspergillus flavus. In addition, the minimum inhibitory concentration (MIC) amounted to 128 µg/mL (≈ 499 µM) with Candida; 128 µg/mL (≈ 499 µM) with Micrococcus luteus; 128 µg/mL (≈ 499 µM) with Bacillus spizizenii; 128 µg/mL (≈ 499 µM) in the test on Escherichia coli; 256 µg/mL (≈ 997 µM) with Staphylococcus aureus [2]; 128 µg/mL (≈ 499 µM) in the test on Bacillus sp..

On to `COc1ccc(N(CC#N)Cc2ccc(F)cc2F)cc1`, for which the MIC against Staphylococcus aureus [1] is 256 µg/mL (≈ 888 µM); with Cyberlindnera jadinii, 128 µg/mL (≈ 444 µM); in the test with Pseudomonas aeruginosa, 128 µg/mL (≈ 444 µM); against Shigella dysenteriae, 256 µg/mL (≈ 888 µM); with Candida albicans, 128 µg/mL (≈ 444 µM); against Aspergillus flavus, 128 µg/mL (≈ 444 µM). Besides, the MIC in the test on Candida turned out to be 256 µg/mL (≈ 888 µM); in the test with Micrococcus luteus, 128 µg/mL (≈ 444 µM); against Bacillus spizizenii, 128 µg/mL (≈ 444 µM); in the test with Escherichia coli, 256 µg/mL (≈ 888 µM); with Staphylococcus aureus [2], 256 µg/mL (≈ 888 µM); against Bacillus sp., 256 µg/mL (≈ 888 µM).

As to `Cc1ccc(N(CC#N)Cc2ccc(F)cc2F)cc1`, the MIC is 128 µg/mL (≈ 470 µM) with Staphylococcus aureus [1]; 128 µg/mL (≈ 470 µM) in the test with Cyberlindnera jadinii; 256 µg/mL (≈ 940 µM) against Pseudomonas aeruginosa; 128 µg/mL (≈ 470 µM) against Shigella dysenteriae; 64 µg/mL (≈ 235 µM) against Candida albicans; 64 µg/mL (≈ 235 µM) against Aspergillus flavus. Moreover, the minimum inhibitory concentration (MIC) in the test with Candida was 128 µg/mL (≈ 470 µM); against Micrococcus luteus, 128 µg/mL (≈ 470 µM); in the test with Bacillus spizizenii, 256 µg/mL (≈ 940 µM); with Escherichia coli, 128 µg/mL (≈ 470 µM); with Staphylococcus aureus [2], 256 µg/mL (≈ 940 µM); against Bacillus sp., 128 µg/mL (≈ 470 µM).

These data come from ChEMBL document CHEMBL3621169, “Synthesis of tetrazole compounds as a novel type of potential antimicrobial agents and their synergistic effects with clinical drugs and interactions with calf thymus DNA” (Medchemcomm, 2015).
